Here are results for two compounds from paper PMC8591608, “DNDI-6148: A Novel Benzoxaborole Preclinical Candidate for the Treatment of Visceral Leishmaniasis” (Journal of Medicinal Chemistry, 2021).

Molecules are shown by their SMILES. Where “and” joins values, the source holds several entries; their conditions need not be identical. Equal values may be shown once. Read-outs that look alike come from different tables or passages of the source. Where only a bound is given, the exact number is not on record here.

Usually half-life stands for how long it takes for the measured level to halve. Lower therefore signals fast loss. The AUC(0-inf) is the area under the concentration-time curve extrapolated to infinity. Low values mean low exposure, high ones high exposure. The term AUC(0-t) denotes exposure summed from dosing to a finite time, without extrapolation to infinity. Usually Cmax stands for the highest concentration seen after dosing. A word on the Tmax: it is the time from dosing to the highest level. Broadly, the microsomal CLint is the rate of metabolic loss divided by the concentration. As a reminder, the hepatocyte CLint is the rate of metabolic loss divided by the concentration. High values mean rapid turnover, low ones slow turnover. Usually IC50 stands for the midpoint of a concentration-inhibition curve. What is called NOAEL is the highest dose or exposure tested at which no adverse effect was seen.

Data set [1] has as its system L. donovani clones, CPSF3 Asn219His. Put plainly: Drug sensitivity, L. donovani CRISPR-Cas9 edited CPSF3 Asn219His. Format: cell-based. Particulars: listed as DNDI-6148. On the procedure: A cell line constitutively expressing Cas9 and T7 RNA polymerase was generated by transfecting 4 × 10^7 promastigotes with the pTB007 vector (10 μg), as previously described.[29] Expression of Cas9 in selected clones was confirmed by western blotting (Figure S1). In addition, the CRISPR-Cas9 system in these parasites was confirmed as functional following the successful tagging of the flagellar protein PF16 with mNeonGreen, as previously described.[29]
To introduce specific mutations into CPSF3, 3 × 10^6 promastigotes expressing Cas9 and T7 RNA were resuspended in a 110 μL of Human T-Cell Nucleofector reagent and transfected with 18 μL of sgRNA and 4 μg of template using the Amaxa Nucleofector electroporator (program V-033). sgRNA was produced according to the previously established protocol from the Gluenz lab,[30] in which the scaffold primer G00 and a gene-specific forward primer (FwsgRNA) were used (Table S1). Twenty-four hours following transfection, DNDI-6148 was added to cultures at 6 μM. Drug-selected populations were cloned by limiting dilution, EC50s were determined, and genomic DNA was extracted. The CPSF3 gene from CRISPR-edited parasites was amplified by PCR, and the resulting products were sequenced.
Drug sensitivity assays with wild-type and transgenic T. brucei and L. donovani cell lines were carried out as previously described.[31],[32]

The nature of data set [2]: Metabolite identification in microsomes. Type of data set: in vitro ADME, rat, mouse, dog, human, hamster. On the procedure:
Metabolite identification studies were conducted at WuXi AppTec, China. DNDI-6148 was incubated at 10 μM in the presence of Beagle dog and Sprague-Dawley rat liver microsomes (1 mg/mL) for 60 min. Following precipitation with a solution of formic acid and acetonitrile, metabolites were identified by LC-UV-MSn (n = 1–2).

Data set [3] can be described thus: In vivo pharmacokinetics in rat. Further details: species or system male Sprague-Dawley rats. To be noted: for MRT inf: read-out: MRT0-inf; for MRT last: read-out: MRT0-last. On the procedure:
DNDI-6148 was formulated in 2% ethanol, 1 mol equiv NaOH, dextrose (5% solution), and administrated to male Sprague-Dawley rats, either i.v. after filtration and pH adjustment (at 2 mg/kg), or p.o. as a homogenous suspension (at 10 mg/kg). The K2-EDTA anticoagulant was added to blood samples collected at predose, 0.083 (i.v. only), 0.25, 0.5, 1, 2 (p.o. only), 4, 8, and 24 h, and were processed to plasma and stabilized with phosphoric acid (1% final) before analysis by LC-MS/MS. PK parameters were calculated using WinNonlin software (version 6.21 and 6.3).

Data set [4] can be described thus: Liver microsome stability, rat. Format: in vitro ADME. To be noted: Sprague-Dawley, rat liver microsomes, pH 7.4. The protocol: Tests were performed by WuXi AppTec, China. Test compounds (at 1 μM) or positive controls (testosterone, propafenone, and diclofenac) were incubated at 37 °C with liver microsomes from Balb/c mouse, golden (Syrian) hamster, Sprague-Dawley rat, Beagle dog, or human in the presence of a NADPH regenerating system and phosphate buffer (100 mM, pH 7.4) at 0.4 or 0.8 mg/mL microsomal protein. The samples were removed at time intervals from 0 to 60, 90, or 120 min and immediately mixed with cold methanol supplemented or not with acid (3% formic acid) and centrifuged prior to analysis by LC-MS/MS using tolbutamide or propranolol as internal standards.
For orientation: Liver microsomes are vesicles of endoplasmic reticulum, rich in cytochrome P450 enzymes.

Data set [5] can be described thus: Hepatocyte stability, dog. Type of data set: in vitro ADME. Particulars: Beagle, cryopreserved dog hepatocytes. On the procedure: (§1) Tests were performed by WuXi AppTec, China. Following a viability check of cryopreserved hepatocytes from Sprague-Dawley rat, Beagle dog, or human, test compounds (at 1 μM) or positive controls 7-ethoxycoumarin and 7-hydroxycoumarin (at 3 μM) were incubated at 37 °C, 5% CO2 with hepatocytes in Williams’ Medium E. Following incubation of 15, 30, 60, 90, 120, 180, and 240 min, reactions were stopped by the addition of acetonitrile, the samples were centrifuged, and LC-MS/MS analysis was conducted using tolbutamide as an internal standard.

The target in data set [6] is CYP2C19 (Homo sapiens, UniProt P33261). Put plainly: CYP inhibition, CYP2C19. Type of data set: in vitro ADME. Particulars: human liver microsomes. On the procedure: The study was conducted by WuXi AppTec, Co., China, using the time-dependent (TDI) method. […] Following incubation with substrates (phenacetin for 1A2, diclofenac for 2C9, S-(+) mephenytoin for 2C19, dextromethorphan for 2D6, and midazolam or testosterone for 3A4), reactions were stopped by adding ice-cold acetonitrile, the samples were analyzed for the formation of metabolites by LC-MS/MS, and the percentage of inhibition was determined.

Data set [7] can be described thus: Hepatocyte stability, human. To be noted: cryopreserved hepatocytes. Format: in vitro ADME. On the procedure:
as §1

Data set [8] concerns Salmonella typhimurium strains (TA98 and TA100). In words: Mini-Ames reverse mutation screen. Type of data set: cell-based. Particulars: TA98 and TA100, with and without metabolic activation, 1.5 to 1000 μg/well. The protocol:
Mini-Ames reverse mutation screens were conducted by WuXi AppTec, Co., China. Two Salmonella typhimurium strains (TA98 and TA100) were employed, both in the presence and absence of metabolic activation (induced rat liver S9). Test compounds were assessed at doses of 1.5, 4, 10, 25, 64, 160, 400, and 1000 μg per well, 2-aminoanthracene, 2-nitrofluorene, and sodium azide were used as positive controls, and the negative control was DMSO.

Data set [9] is described as follows: in vivo. To be noted: both, Sprague-Dawley, rat.
Setting [10] is: male, Sprague-Dawley, plasma, iv, rat, i.v. 2 mg/kg.
The mark [11] stands for this setting: male, Sprague-Dawley, rat, plasma, IV 2.32 mg/kg, mean of R1-R3.
Where [12] appears, read: male, Sprague-Dawley, rat, plasma, PO 10.4 mg/kg, mean of R4-R6.

CYP2C19, sequence (P33261 whole entry): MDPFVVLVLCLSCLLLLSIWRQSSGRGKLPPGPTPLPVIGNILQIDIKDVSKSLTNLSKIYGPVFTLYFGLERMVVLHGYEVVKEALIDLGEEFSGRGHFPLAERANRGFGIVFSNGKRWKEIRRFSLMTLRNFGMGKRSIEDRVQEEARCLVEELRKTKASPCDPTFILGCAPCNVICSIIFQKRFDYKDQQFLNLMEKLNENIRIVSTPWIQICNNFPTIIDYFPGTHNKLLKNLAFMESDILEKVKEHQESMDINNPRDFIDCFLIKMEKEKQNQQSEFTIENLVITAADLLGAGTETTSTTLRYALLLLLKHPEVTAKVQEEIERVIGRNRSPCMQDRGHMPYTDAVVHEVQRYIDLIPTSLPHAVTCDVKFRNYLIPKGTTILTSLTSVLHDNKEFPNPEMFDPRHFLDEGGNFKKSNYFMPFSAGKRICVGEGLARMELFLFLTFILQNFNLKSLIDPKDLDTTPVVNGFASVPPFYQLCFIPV

As to `Cc1c(C(=O)Nc2ccc3c(c2)B(O)OC3)nnn1-c1ccccn1` [Compound 23, N-(1-Hydroxy-1,3-dihydrobenzo[c][1,2]oxaborol-6-yl)-5-methyl-1-(pyridin-2-yl)-1H-1,2,3-triazole-4-carboxamide], in [1], the “Fold change (relative to WT)” value was 3.0 fold and 3 fold. Further, the reactive metabolite formation result in data set [2] (microsomes, any species) was “no evidence of reactive metabolite formation”. In data set [2] (rat microsomes), the “metabolism in rat microsomes” value was “No metabolism was detected”. In addition, the Plasma concentration amounted to 4727 in [3] (IV 2.32 mg/kg, plasma, 5 min, mean of R1-R3); 4093 in [3] (IV 2.32 mg/kg, plasma, 0.25 h, mean of R1-R3); 3627 in [3] (IV 2.32 mg/kg, plasma, 0.50 h, mean of R1-R3); 2767 in data set [3] (IV 2.32 mg/kg, plasma, 1.00 h, mean of R1-R3); 537 in [3] (IV 2.32 mg/kg, plasma, 4.00 h, mean of R1-R3); 84.9 in data set [3] (IV 2.32 mg/kg, plasma, 8.00 h, mean of R1-R3). Also, the Plasma concentration in [3] (IV 2.32 mg/kg, plasma, 24.0 h, mean of R1-R3) was 5.67; in data set [3] (PO 10.4 mg/kg, plasma, 0.25 h, mean of R4-R6) it was 4287; in [3] (PO 10.4 mg/kg, plasma, 0.50 h, mean of R4-R6) it was 3993; in data set [3] (PO 10.4 mg/kg, plasma, 1.00 h, mean of R4-R6), 5153; in [3] (PO 10.4 mg/kg, plasma, 2.00 h, mean of R4-R6), 6900; in [3] (PO 10.4 mg/kg, plasma, 4.00 h, mean of R4-R6), 5773. In addition, the Plasma concentration in data set [3] (PO 10.4 mg/kg, plasma, 8.00 h, mean of R4-R6) worked out at 1249; in data set [3] (PO 10.4 mg/kg, plasma, 24.0 h, mean of R4-R6), 13.8. The AUC0-inf/AUC0-last in data set [3] (IV 2.32 mg/kg, mean of R1-R3) is 100%; in data set [3] (PO 10.4 mg/kg, mean of R4-R6), 100%. In addition, the Tlast is 24.0 h in [3] (IV 2.32 mg/kg, mean of R1-R3) and 24.0 h in [3] (PO 10.4 mg/kg, mean of R4-R6). The Vd at 24 h in data set [3] (setting [10]) stood at 0.6 L/kg. The compound also showed a half-life at 24 h in [3] (setting [10]) of 2.8 h. Also, the clearance in [3] (male, Sprague-Dawley, plasma, iv, rat, i.v. 2 mg/kg, read-out: clearance) was 4.5 mL/min/kg; in data set [3] (male, Sprague-Dawley, rat, plasma, IV 2.32 mg/kg, mean of R1-R3, read-out: Cl), 4.5 mL/min/kg. Also, the bioavailability worked out at 94% in data set [3] (male, Sprague-Dawley, plasma, po, rat, p.o. 10 mg/kg, read-out: F) and 94% in data set [3] (male, Sprague-Dawley, rat, plasma, PO 10.4 mg/kg vs IV 2.32 mg/kg, mean, read-out: Bioavailability). The area under the curve AUC(0-inf) in [3] (setting [11]) is 9160 ng·h/mL; in [3] (setting [12]), 38600 ng·h/mL. In addition, the exposure AUC(0-t) worked out at 9140 ng·h/mL in data set [3] (setting [11]) and 38500 ng·h/mL in data set [3] (setting [12]). The compound further showed a C0 in [3] (setting [11]) of 5100 ng/mL. Moreover, the half-life in data set [3] (setting [11]) was 2.75 h; in data set [3] (setting [12]), 2.34 h. The MRT inf in data set [3] (setting [11]) came to 2.29 h; in data set [3] (setting [12]), 4.18 h. The MRT last in [3] (setting [11]) turned out to be 2.21 h; in data set [3] (setting [12]), 4.15 h. Also, the Vd in [3] (male, Sprague-Dawley, rat, plasma, IV 2.32 mg/kg, mean of R1-R3, read-out: Vdss) is 0.603 L/kg. In addition, the highest concentration (Cmax) in [3] (setting [12]) was determined as 7330 ng/mL. Further, in data set [3] (setting [12]), the Tmax worked out at 2.67 h. The same compound registered a microsomal CLint at 1 μM in [4] of less than 11.9 µL/min/mg. Also, the intrinsic clearance (hepatocyte CLint) at 1 μM in [5] is 2.4 µL/min/1e6 cells; in data set [7], 0.5 µL/min/1e6 cells. The concentration for half-maximal inhibition (IC50) in data set [6] was more than 50 µM. The Ames assay result in [8] is “negative”.

As for `Cc1c(-c2ccccn2)coc1C(=O)Nc1ccc2c(c1)B(O)OC2` [Compound 28, N-(1-Hydroxy-1,3-dihydrobenzo[c][1,2]oxaborol-6-yl)-3-methyl-4-(pyridin-2-yl)furan-2-carboxamide], in [9], the NOAEL at 14 days was less than 12.5 mg/kg.
